Assay results from US7015250B2, “Methods and pharmaceutical preparations for normalizing blood pressure with (-)-hydroxycitric acid” (Glykon Technologies Group, LLC, priority 2000, dated 2006).
“And” between values parts separate entries of the source, which are not always exact repeats. Identical values can stand only once.

Key:
[1] = serum NEFA, insulin and corticosterone in rats on a moderate fat diet given potassium hydroxycitrate for 60 days; format: in vivo; details: student's T test
Excerpt: Therefore, animal tests were scrutinized to determine if variations in serum levels of non-esterified fatty acids (NEFA), insulin and corticosterone could explain the novel findings. Ten-week old male rats were placed on a moderate fat diet (30% of calories, which is a high-fat diet for rats) for 60 days. These rats were fed water or potassium hydroxycitrate (0.33 mmols/kg) twice daily by gastric intubation, but were otherwise provided with food and water ad libitum. Five animals were used as controls and two different formulas of potassium hydroxycitrate were provided to five animals each. The differences between control (5 data points) and active (10 data points) were then analyzed according to the student's T test. […] Both of these factors could play a role in the clinical findings of lowered blood pressure in hypertensive individuals. Elevated insulin levels are known to be associated with hypertension. Glucocorticoids, similarly, are associated with hypertension through a variety of mechanisms, including sodium retention.

[2] = treated rats, diets mostly of glucose (e.g. 70% glucose); Sullivan and Triscari 1976; cited from earlier work
[3] = pilot open clinical weight loss trial with a pouch delivery form of potassium (−)-hydroxycitrate in extremely obese patients (blood pressure, weight, tolerability); format: in vivo, human; design: Starting Blood Pressure: unit not given here
Excerpt: Blood pressure data was acquired from a multi-week pilot open clinical weight loss trial with extremely obese patients which was undertaken to gauge the effects of a pouch delivery form of a potassium salt of (−)-hydroxycitrate under the normal circumstances faced in clinical practice with this patient population. Sixteen patients were enrolled, three of whom were diabetics on medications or insulin. Several others were suspected of suffering from insulin resistance. The patients ingested 3–4 grams of HCA per day in two divided doses. Aside from being informed that they must eat a carbohydrate-containing meal within one hour of taking the HCA and that they should avoid eating late in the day, they were not instructed to follow any special diet or exercise plan outside their normal habits and no caloric restriction was imposed. This particular form of potassium (−)-hydroxycitrate delivery typically was mixed into water or juice and consumed at mid-morning and mid-afternoon. The delivery was a water-soluble immediate release form. […] A number of patients continued on the program for 6 weeks. […] Several other patients experienced good appetite suppression, yet also complained of episodic tiredness at the beginning of the program, a sign of low blood sugar. Two patients subsequently were placed on phentermine. […] The average weight loss over the 3 week period for these 14 patients was approximately 3.1 pounds per person per week. The clinical decision was made that potassium (−)-hydroxycitrate in an immediate release format can exercise a strong hypoglycemic effect in diabetics and that it appears to influence blood sugar levels in protodiabetics, as well. At therapeutically effective dosages, HCA probably should be used with diabetic populations only under a physician's care.
Along with the hypoglycemic effect of the potassium hydroxycitrate, a quite surprising finding was that blood pressure levels in eight patients began to normalize rapidly with this treatment. Elevated blood pressure is common with obese and insulin-resistant patients, and therefore it was unremarkable that in this patient population (ages ranging roughly 30 to 60) that almost one half suffered from hypertension. Following are the readings for the eight hypertensive patients. Many of these patients had been advised to lower salt intake and to increase potassium and magnesium intake. […]

SMILES | corticosterone levels, HCA groups versus control ([1]; pooled active (10) vs control (5), one-tailed P 0.0013, two-tailed P 0.0026) | insulin levels, HCA groups versus control ([1]; pooled active (10) vs control (5), one-tailed P 0.0306, two-tailed P 0.0612) | NEFA, HCA groups versus control ([1]; pooled active (10 data points) vs control (5)) | plasma levels of glucose, insulin, or free fatty acids relative to controls [2] | hypotensive effect ([3]; as little as 3 grams of HCA per day in divided doses (5 grams of the salt), manifests over one to several weeks) | Starting Blood Pressure ([3]; baseline reading of each of the eight hypertensive, extremely obese patients before treatment) | weight loss of one patient ([3]; one patient who followed the program for 10 weeks, 3–4 grams of HCA per day) [pounds] | average weight loss ([3]; over the 3 week period, 14 patients, 3–4 grams of HCA per day, no caloric restriction) | tolerability ([3]; pre-commercial pouch preparation, patients complained of inconvenience and poor taste) | hypoglycemic reactions ([3]; two of the diagnosed diabetics on medications or insulin, 3–4 grams of HCA per day, immediate release)
O=C(O)CC(O)(C(=O)O)C(O)C(=O)O (single isomer, unassigned; (-)) [HCA, (−)-Hydroxycitric acid] | very significantly lower | significantly lower | no significant difference | no significant differences | – | – | – | – | – | –
O=C([O-])CC(O)(C(=O)[O-])C(O)C(=O)[O-].[K+].[K+].[K+] (stereo not drawn) [potassium hydroxycitrate, potassium (−)-hydroxycitrate] | – | – | – | – | significant hypotensive effect | 150/88 and 178/100 and 130/98 and 150/98 and 140/78 and 180/88 and 120/80 and 170/100 | 32 | approximately 3.1 pounds per person per week | no other issues of tolerability | severe hypoglycemic reactions
